# A melting point compilation (Tetko et al.; mined from patent text by program, amines drawn as free bases though some values may be those of a salt)
row,Structure (SMILES),melting point
1,COCOc1c(NC(=O)Nc2ccccc2)cc(OC)cc1C(C)(C)C,121 to 123 °C
2,NC(=NO)c1ncn2c1[C@@H]1CCN1C(=O)c1cc(F)ccc1-2,248 to 250 °C
3,CC(C)(C)NS(=O)(=O)c1ccc(Cl)c(CBr)c1Cl,157 °C
4,CC(=O)N1CCN=C1Nc1cc(C)nn1-c1cccc(C(F)(F)F)c1,173 to 175 °C
5,O=[N+]([O-])C=C1C2CC3CC(C2)CC1C3,78 to 81 °C
6,COc1ccc(Cl)c2oc(-c3ccc(S(N)(=O)=O)cc3)c(-c3ccc(F)cc3)c(=O)c12,279 to 281 °C
7,CC12CCC(=O)C=C1CCC1C2=CCC2(C)C1CCC2(O)C(=O)CCl (stereo unspecified),227 to 228 °C
8,CN(Cc1ccc(-c2ccc(N3C[C@H](Cn4ccnn4)OC3=O)cc2F)cn1)CC(O)CO (stereo partly specified),123 °C
9,OC/C=C/C=C/c1ccc(OCC(F)(F)C(F)F)cc1,95 to 97 °C
10,CN1Cc2c(-c3nc(C4CC4)no3)ncn2-c2cccc(Cl)c2C1=O,183 to 184 °C
11,CC(=O)OCC1OC(OS(=O)(=S)c2ccccc2)C(OC(C)=O)C(OC(C)=O)C1OC(C)=O (stereo unspecified),53 to 54 °C
12,CN(C)CCNC(=O)c1cn(C)c(=O)c2cc3cccnc3nc12,218 to 221 °C
13,ON=Cc1ccc2c(c1)COC2c1ccc(F)cc1 (stereo unspecified),158 to 159 °C
14,ClC(=NNc1ccccc1)c1ccc(Cl)c(Cl)c1,121 to 124 °C
15,CCCc1nn(C)c2c(=S)[nH]c(-c3ccccc3OCC)nc12,156 to 158 °C
16,CCOC(=O)Nc1c(C#N)c(C(F)(F)F)nn1-c1c(Cl)cc(C(F)(F)F)cc1Cl,177 to 179 °C
17,COc1ccc(N2CCOCC2)c2sc(NC(=O)N(C)C3CCC(C(F)(F)F)CC3)nc12 (stereo unspecified),157 to 167 °C
18,CCCCc1cc2cn(C3CCCC3)c(=O)nc2o1,130 to 131 °C
19,COc1ccnc(CSc2nc3cc(OC(F)(F)C(F)F)ccc3[nH]2)c1OC,98 to 102 °C
20,C=CC(=O)NCC(C(C)=O)C(=O)c1ccccc1 (stereo unspecified),125 to 126 °C
21,N#CCC(=O)C(F)(F)C(F)(F)F,47 to 54 °C
22,O=C1CCCC(=O)C1Br,153 to 154 °C
23,COc1cc2cc3c(Nc4ccc(Oc5ccccc5)c(Cl)c4)c(C#N)cnc3cc2cc1OCCN1CCOCC1,190 to 194 °C
24,CCCCCCCCCCCCCCCCCCOc1cc(OCCCOc2ccc(S(C)=O)cc2)cc(C(=O)OC)c1 (stereo unspecified),86 to 88 °C
25,CCCNC(=O)NS(=O)(=O)c1cc2c(cc1OC)OCC(NC(=O)c1cc(Cl)ccc1OC)C2 (stereo unspecified),203 to 205 °C
26,Cc1ccc(S(=O)(=O)Nc2ccc(C(=O)CN3CCN(c4ccncc4)CC3)cc2)cc1,168 to 170 °C
